Each structure is given as a SMILES string. Structures can show the parent of a compound that is named as a salt.

The target of the experiment is T1, full length SGK1 (Homo sapiens, UniProt O00141).
T1 construct: 125 μM full length SGK1 (Life Technologies Part #PR7358A); purchased Life Technologies PR7358A
T1 sequence (O00141 1-431): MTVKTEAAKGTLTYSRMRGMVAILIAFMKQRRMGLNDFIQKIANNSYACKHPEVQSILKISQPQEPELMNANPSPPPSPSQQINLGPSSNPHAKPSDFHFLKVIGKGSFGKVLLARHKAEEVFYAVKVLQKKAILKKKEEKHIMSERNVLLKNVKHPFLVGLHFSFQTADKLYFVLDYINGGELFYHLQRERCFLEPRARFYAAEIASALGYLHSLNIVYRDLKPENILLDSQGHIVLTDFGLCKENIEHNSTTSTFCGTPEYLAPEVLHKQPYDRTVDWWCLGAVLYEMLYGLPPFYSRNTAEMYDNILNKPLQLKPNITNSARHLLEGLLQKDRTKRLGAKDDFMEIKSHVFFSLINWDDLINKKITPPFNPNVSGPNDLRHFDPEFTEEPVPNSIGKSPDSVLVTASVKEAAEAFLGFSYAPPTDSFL
The experiment is described as follows: SGK1 inhibition Assay A (Caliper LabChip electrophoretic separation of fluorescent peptide substrate and phosphorylated product). The format is biochemical. Conditions: Assay A; 20 μM ATP, 40 min incubation; read-out: SGK1 IC50.
The IC50 is the concentration that gives 50% inhibition. On to `COC(=O)N1CC=C(c2cc(N3CCC[C@@H](NC(=O)c4sc(Cl)cc4OCCN4CCOC(C)C4)C3)c3c(N)ncnn23)C1` (stereo partly drawn) [Example 286, Methyl 3-(4-amino-5-((3R)-3-(5-chloro-3-(2-(2-methylmorpholino)ethoxy)thiophene-2-carboxamido)piperidin-1-yl)pyrrolo[2,1-f] [1,2,4]triazin-7-yl)-2,5-dihydro-1H-pyrrole-1-carboxylate], for which the IC50 is 23 nM.

On to `NC(=O)N1CC=C(c2cc(N3CCC[C@@H](NC(=O)c4ccc(Cl)s4)C3)c3c(N)ncnn23)C1` [Example 913, (R)-3-(4-amino-5-(3-(5-chlorothiophene-2-carboxamido)piperidin-1-yl)pyrrolo[2,1-f][1,2,4]triazin-7-yl)-2,5-dihydro-1H-pyrrole-1-carboxamide], for which the IC50 amounted to 3 nM.

Regarding `NCCOc1cc(C(F)F)sc1C(=O)N[C@@H]1CCCN(c2cc(-c3ccnc(C(F)F)c3)n3ncnc(N)c23)C1` [Example 326, (R)-N-(1-(4-amino-7-(2-(difluoromethyl)pyridin-4-yl)pyrrolo[2,1-f][1,2,4]triazin-5-yl)piperidin-3-yl)-3-(2-aminoethoxy)-5-(difluoromethyl)thiophene-2-carboxamide], the IC50 amounted to 4 nM.

For the compound `CC(=O)N1CC=C(c2cc(N3CCC[C@@H](NC(=O)c4ccnc(OCCN5CCN(C)CC5)c4)C3)c3c(N)ncnn23)C1` [Example 713], the IC50 came to 59 nM.

For the compound `Cn1cc(-c2cc(N3CCC[C@@H](NC(=O)c4ccc(Cl)s4)C3)c3c(N)ncnn23)nn1` [Example 868, (R)—N-(1-(4-amino-7-(1-methyl-1H-1,2,3-triazol-4-yl)pyrrolo[2,1-f][1,2,4]triazin-5-yl)piperidin-3-yl)-5-chlorothiophene-2-carboxamide], the IC50 turned out to be 114 nM.

As for `COCCOc1cc(Cl)sc1C(=O)N[C@@H]1CCCN(c2cc(-c3ccnc(F)c3)n3ncnc(N)c23)C1` [Example 147, (R)-N-(1-(4-amino-7-(2-fluoropyridin-4-yl)pyrrolo[2,1-f][1,2,4]triazin-5-yl)piperidin-3-yl)-5-chloro-3-(2-methoxyethoxy)thiophene-2-carboxamide], the IC50 came to 4 nM.

With `COC(=O)N1CC=C(c2cc(N3CCC[C@@H](NC(=O)c4sc(Cl)cc4OC4CCN(C)CC4)C3)c3c(N)ncnn23)C1` [Example 562, methyl (R)-3-(4-amino-5-(3-(5-chloro-3-((1-methylpiperidin-4-yl)oxy)thiophene-2-carboxamido)piperidin-1-yl)pyrrolo[2,1-f][1,2,4]triazin-7-yl)-2,5-dihydro-1H-pyrrole-1-carboxylate], the IC50 stood at 2 nM.

Regarding `N#Cc1ccc(-c2ccc(C(=O)N[C@@H]3CCCN(c4cc(-c5ccnc(C(F)F)c5)n5ncnc(N)c45)C3)s2)cc1` [Example 543, (R)-N-(1-(4-amino-7-(2-(difluoromethyl)pyridin-4-yl)pyrrolo[2,1-f][1,2,4]triazin-5-yl)piperidin-3-yl)-5-(4-cyanophenyl)thiophene-2-carboxamide], the IC50 stood at 7 nM.

With `CCN(CC)CCOc1cc(C(F)F)sc1C(=O)N[C@@H]1CCCN(c2cc(-c3cncnc3)n3ncnc(N)c23)C1` [Example 410, (R)-N-(1-(4-amino-7-(pyrimidin-5-yl)pyrrolo[2,1-f] [1,2,4]triazin-5-yl)piperidin-3-yl)-3-(2-(diethylamino)ethoxy)-5-(difluoromethyl) thiophene-2-carboxamide], the IC50 worked out at 198 nM.

On to `Nc1ncnn2c(-c3ccc(=O)n(CC(F)F)c3)cc(N3CCC[C@@H](NC(=O)c4sc(Cl)cc4OCC(=O)N4CCCC4)C3)c12` [Example 422, (R)-N-(1-(4-amino-7-(1-(2,2-difluoroethyl)-6-oxo-1,6-dihydropyridin-3-yl)pyrrolo[2,1-f][1,2,4]triazin-5-yl)piperidin-3-yl)-5-chloro-3-(2-oxo-2-(pyrrolidin-1-yl)ethoxy) thiophene-2-carboxamide], for which the IC50 came out at 15 nM.

For the compound `CN(C)CCOc1cc(Cl)sc1C(=O)N[C@@H]1CCCN(c2cc(C3=CCN(C(=O)c4ncco4)C3)n3ncnc(N)c23)C1` [Example 908, (R)-N-(1-(4-amino-7-(1-(oxazole-2-carbonyl)-2,5-dihydro-1H-pyrrol-3-yl)pyrrolo[2,1-f][1,2,4]triazin-5-yl)piperidin-3-y1)-5-chloro-3-(2-(dimethylamino)ethoxy)thiophene-2-carboxamide], the IC50 was determined as 3 nM.

Turning to `Nc1ncnn2c(C3=CCN(C(=O)[C@H]4CCCCN4)C3)cc(N3CCC[C@@H](NC(=O)c4ccc(Cl)s4)C3)c12` [Example 892, N-((R)-1-(4-amino-7-(1-((R)-piperidine-2-carbonyl)-2,5-dihydro-1H-pyrrol-3-y1)pyrrolo[2,1-f][1,2,4]triazin-5-yl)piperidin-3-y1)-5-chlorothiophene-2-carboxamide, TFA], the IC50 is 15 nM.

For `N#Cc1ccc(-c2cc(N3CCC[C@@H](NC(=O)c4sc(Cl)cc4OC4CC5(CNC5)C4)C3)c3c(N)ncnn23)cn1` [Example 591], the IC50 came out at 1 nM.

As to `CN(C)CCOc1cc(Cl)sc1C(=O)N[C@@H]1CCCN(c2cc(-c3ccc(-n4cnnn4)cc3)n3ncnc(N)c23)C1` [Example 187, (R)-N-(1-(7-(4-(1H-tetrazol-1-yl)phenyl)-4-aminopyrrolo[2,1-f][1,2,4]triazin-5-yl)piperidin-3-yl)-5-chloro-3-(2-(dimethylamino)ethoxy) thiophene-2-carboxamide, 2 TFA], the 50% inhibitory concentration (IC50) came to 6 nM.

As for `Nc1ncnn2c(-c3ccc(=O)n(CC(F)F)c3)cc(N3CCC[C@@H](NC(=O)c4cc5ccccc5[nH]4)C3)c12` [Example 503, (R)-N-(1-(4-amino-7-(1-(2,2-difluoroethyl)-6-oxo-1,6-dihydropyridin-3-yl)pyrrolo[2,1-f][1,2,4]triazin-5-yl)piperidin-3-yl)-1H-indole-2-carboxamide], the IC50 was determined as 9 nM.

Consider `COc1cscc1C(=O)N[C@@H]1CCCN(c2cc(-c3ccnc(F)c3)n3ncnc(N)c23)C1` [Example 156, (R)-N-(1-(4-amino-7-(2-fluoropyridin-4-yl)pyrrolo[2,1-f][1,2,4]triazin-5-yl)piperidin-3-yl)-4-methoxythiophene-3-carboxamide], for which the 50% inhibitory concentration (IC50) is 3 nM.

Turning to `CC(=O)N1CC=C(c2cc(N3CCC[C@@H](NC(=O)c4cccc(N5C[C@H]6CC[C@@H](C5)N6)n4)C3)c3c(N)ncnn23)C1` [Example 814, N—((R)-1-(7-(1-acetyl-2,5-dihydro-1H-pyrrol-3-yl)-4-aminopyrrolo[2,1-f][1,2,4]triazin-5-yl)piperidin-3-yl)-6-((1R,5S)-3,8-diazabicyclo[3.2.1]octan-3-yl)picolinamide], the IC50 came out at 9 nM.

Consider `N#Cc1ccc(-c2cc(N3CCC[C@@H](NC(=O)c4sc(Cl)cc4OC4CN(CC(F)F)C4)C3)c3c(N)ncnn23)cn1` [Example 383, (R)—N-(1-(4-amino-7-(6-cyanopyridin-3-yl)pyrrolo[2,1-f][1,2,4]triazin-5-yl)piperidin-3-yl)-5-chloro-3-((1-(2,2-difluoroethyl)azetidin-3-yl)oxy)thiophene-2-carboxamide], for which the IC50 was 25 nM.

In the case of `COc1cc(-c2cc(N3CCC[C@@H](NC(=O)c4ccc(Cl)s4)C3)c3c(N)ncnn23)cc(C(F)(F)F)n1` [Example 232, N-[(3R)-1-{4-amino-7-[2-methoxy-6-(trifluoromethyl)pyridin-4-yl]pyrrolo[2,1-f][1,2,4]triazin-5-yl}piperidin-3-yl]-5-chlorothiophene-2-carboxamide], the IC50 is 161 nM.

The values are drawn from US20260250290A1 (BRISTOL-MYERS SQUIBB COMPANY, priority 2023, published 2026).
